The subject of assay [1] is rumen fluid. As to the kind of experiment: In vitro rumen fluid fermentation assay (Gas Test), methane by gas chromatography. Type of assay: cell-based, cows. The note with it: for Synergistic effect in methane inhibition: combined with iodoform. The method, then: Various samples of single species, extracts, two-species combinations, and three-species combinations were assessed for their potential to inhibit methane production. This evaluation was carried out using in vitro fermentation assays known as Gas Tests. In each Gas Test, 250 mg of total meal ration (TMR) comprising 30% grass, 30% corn, and 40% complete feed was introduced into 100 ml serum vials as the substrate for the fermentation process. Rumen fluid, obtained from fistulated cows at the University of Reading, was mixed with degassed reaction buffer (1.6 L) and supplemented with Na2S (82 ml). Subsequently, 30 ml of the rumen fluid/buffer mixture was added to each serum vial.
The test substances were dissolved in 100% ethanol, and 100 μl of each test substance was added to the serum vials containing the rumen fluid/buffer mixture. All test substances and controls were examined in triplicate for each experiment. Once the test substances and controls were added, the vials were sealed with butyl rubber stoppers and aluminium crimps, then incubated at 39° C. for 24 hours. Following incubation, gas samples were collected from both the control and test vials, and methane levels were determined using gas chromatography.
For each test compound, the “percentage inhibition of methane produced” was calculated using the following formula: […]
The test substances underwent evaluation in three independent Gas Tests, and an average percentage inhibition was calculated for each substance.
Synergy between substances was determined using the Bliss Independence Model using the following equation: […]
Where IAB is the predicted percentage methane inhibition of both substances together and IA and IB are the observed percentage methane inhibitions of the individual substances. The predicted percentage methane inhibition of both substances (IAB) and the observed percent methane inhibition of both substances (Iob) are used to calculate the Combination index (Ci) as follows:
If the Ci<1 then the two substances are synergistic.
Synergy between substances was determined using the following calculation:
Where IABC is the predicted percentage methane inhibition of the three substances together and IA, IB and IC are the observed percentage methane inhibitions of the individual substances.
The predicted percentage methane inhibition of the three substances (IABC) and the observed percent methane inhibition of the combination of the three substances (Iob) are used to calculate the Combination index (Ci) as follows: […]

The subject of assay [2] is Methanococcus maripaludis. As to the kind of experiment: Inhibition of methane production by Methanococcus maripaludis culture (pressure drop after 24 h). To be noted: for Inhibition of methane production by bromoform on its own: bromoform alone at 0.12 μM (very low concentration); for Fold increase of Compound X combined with bromoform as compared to Compound X alone: bromoform 0.12 μM. It counts as cell-based. The protocol: For this experiment, bromoform was prepped at 100 mM by adding 8.75 μl bromoform to 991 μl DMSO. This was diluted 10× to generate a 10 mM solution and further diluted to generate 0.12 mM stock solutions. Compound X stock solutions were prepared in DMSO (except for tannic acid, which was diluted in deionized water), to achieve the desired stock solutions required for testing. The experiment was set up by adding 5 ml of M141 medium (https://www.dsmz.de/microorganisms/medium/pdf/DSMZ_Medium141.pdf) to a screw cap Hungate tube followed by the addition of 5 μl Compound X and/or 5 μl bromoform or 5/10 μl DMSO as follows: • Tube 1: DMSO (10 μl) • Tube 2: Bromoform (5 μl, 0.120 mM) (120 nM final)+5 μl DMSO • Tube 3: Compound X (5 μl stock solution)+5 μl DMSO • Tube 4: Bromoform (5 μl 0.120 mM) (120 nM final)+Compound X (5 μl stock solution)
The concentration of Bromoform was fixed at 0.12 μM.
After the addition of the test substances, 500 μl of an overnight M. maripaludis culture was added to each reaction tube. Each tube was gassed with 80% H2/20% CO2 to 240 kPa and incubated at 37° C. for 24 h.
After the 24 h incubation the pressure inside the tube was measured using a manometer. Given that 5 moles of H2/CO2 are consumed to generate 1 mole of CH4 the drop in pressure observed was used to calculate the amount of methane by the control and test reactions from which a percent inhibition was calculated.
Table 1 below summarises the range of concentrations and the fold increase in inhibition of Compound X when tested with bromoform relative to the level of inhibition for Compound X when tested alone.

Where [3] appears, read: Bos taurus, 24 h, read-out: Average of observed methane inhibition (%).
[4] abbreviates: Bos taurus, sole compound, 25 μM, 24 h, three Gas Tests, read-out: Average of observed methane inhibition (%).

Like-named read-outs stand apart in the source and are kept apart here.

The inhibition is the relative decrease from the control value, in per cent.

As for `BrC(Br)Br` [Bromoform, bromoform], in assay [1] (setting [3]), the inhibition at 0.1 µM was 1.3%. In addition, the inhibition at 1 µM in assay [1] (setting [3]) is 92.4%. The “Inhibition of methane production by bromoform on its own” value in assay [2] is recorded as “too low to inhibit methanogen on its own”; in assay [2] (listed as bromoform) it was “does not reduce or inhibit methane production”.
Take `C=CCSSCC=C` [Diallyl disulfide, diallyl disulfide]: the inhibition at 25 µM in assay [1] (setting [3]) amounted to 5%. Moreover, the “Methane inhibition in combination with Bromoform (%)” value (from here on “Methane inhibition … (%)”) in assay [2] (Compound X 15.6 μM-250 μM (range tested) + bromoform 0.12 μM, 24 h) worked out at 88.8%. In addition, the “Fold increase of Compound X combined with bromoform as compared to Compound X alone” value (shortened to “Fold increase of Compound X combined”) in assay [2] (Compound X 15.6 μM-250 μM (range tested)) was found to be 88.8 fold. Further, the inhibition at 15.6 µM in assay [2] (Methanococcus maripaludis, 24 h, read-out: Methane inhibition of Compound X as a sole compound (%)) was determined as 1%.
For the compound `C=CCSSSCC=C` [Diallyl trisulfide, diallyl trisulfide], the inhibition at 25 µM in assay [1] (setting [4]) stood at 11%. The “Synergistic effect in methane inhibition” value in assay [1] is on record as “synergistic effects were observed”. For the same compound, in assay [2] (Compound X 125 μM + bromoform 0.12 μM, 24 h), the “Methane inhibition … (%)” value is 27.1%. The “Fold increase of Compound X combined” value in assay [2] (Compound X 125 μM) is reported as 27.1 fold. The inhibition at 125 µM in assay [2] (Methanococcus maripaludis, Compound X 125 μM alone, 24 h, read-out: Methane inhibition of Compound X as a sole compound (%)) came to 1%.
For `BrCBr` [Dibromomethane, dibromomethane], in assay [1] (setting [3]), the inhibition at 0.5 µM came out at 14.5% and the inhibition at 10 µM amounted to 99%. In assay [1], the “Synergistic effect in methane inhibition” value is “synergistic effects were observed”.
As for `CCCSSCCC` [Dipropyl disulfide, dipropyl disulfide], the inhibition at 30 µM in assay [1] (Bos taurus, sole compound, 30 μM, 24 h, three Gas Tests, read-out: Average of observed methane inhibition (%)) was found to be 3%. Further, the “Synergistic effect in methane inhibition” value in assay [1] was “synergistic effects were observed”. Further, the “Methane inhibition … (%)” value in assay [2] (Compound X 1 mM + bromoform 0.12 μM, 24 h) is reported as 43.5%. Further, in assay [2] (Compound X 1 mM), the “Fold increase of Compound X combined” value is reported as 1.57 fold. The inhibition at 1000 µM in assay [2] (Methanococcus maripaludis, Compound X 1 mM alone, 24 h, read-out: Methane inhibition of Compound X as a sole compound (%)) stood at 27.7%.
As to `IC(I)I` [Iodoform, iodoform], the inhibition at 2 µM in assay [1] (Bos taurus, sole compound, 2 μM, 24 h, three Gas Tests, read-out: Average of observed methane inhibition (%)) is 40.8%. The inhibition at 10 µM in assay [1] (Bos taurus, sole compound, 10 μM, 24 h, three Gas Tests, read-out: Average of observed methane inhibition (%)) worked out at 98.3%.
As for `O=C1C[C@@H](c2ccc(O)cc2)Oc2cc(O)cc(O)c21` [Naringenin], the inhibition at 100 µM in assay [1] (Bos taurus, sole compound, 100 μM, 24 h, three Gas Tests, read-out: Average of observed methane inhibition (%)) was found to be 10%; in assay [2] (Methanococcus maripaludis, Compound X 100 μM alone, 24 h, read-out: Methane inhibition of Compound X as a sole compound (%)) it was 1%. The “Synergistic effect in methane inhibition” value in assay [1] was “synergistic effects were observed”. In assay [2] (Compound X 100 μM + bromoform 0.12 μM, 24 h), the “Methane inhibition … (%)” value came out at 90.3%. In assay [2] (Compound X 100 μM), the “Fold increase of Compound X combined” value turned out to be 90.3 fold.
On to `CCCCCCC(C=O)=Cc1ccccc1` [α-Hexylcinnamaldehyde], for which the inhibition at 25 µM in assay [1] (setting [4]) amounted to 8%. Moreover, the “Synergistic effect in methane inhibition” value in assay [1] was “synergistic effects were observed”. In addition, the “Methane inhibition … (%)” value in assay [2] (Compound X 31.25 μM + bromoform 0.12 μM, 24 h) turned out to be 97.2%. For the same compound, the “Fold increase of Compound X combined” value in assay [2] (Compound X 31.25 μM) was determined as 97.2 fold. Moreover, the inhibition at 31.25 µM in assay [2] (Methanococcus maripaludis, Compound X 31.25 μM alone, 24 h, read-out: Methane inhibition of Compound X as a sole compound (%)) worked out at 1%.
